How the values were obtained:
[1] = Weight gain of pre-fattening pigs on supplemented feed in a herd with bloody diarrhoea (14 days); assay type: in vivo, Vormastschweine; settings: 100 ppm of each active in feed; for Gesamtzuwachs x̄ (kg): control 8,95; for Endgewicht x̄ (kg): control 59,43; for Tageszuwachs: control 639; for Zuwachsindex (%): control = 100
From the text: Die Versuche wurden in einem Schweinemastbetrieb durchgeführt, bei dem ständig bei 5 bis 15 der Vormastschweine (Rasse BU x PC + L) von etwa 50 kg Gewicht, die in Koben zu 10 bis 15 Tieren untergebracht waren, blutige Durchfälle auftraten. Histologisch und mikrobiologisch wurde als Erreger der Durchfallerkrankung Vibrio coli festgestellt.
(§1) Die Versuchstiere wurden in 4 Gruppen aufgeteilt und während der gesamten Versuchsdauer von 14 Tagen mit dem Vormastschweine-Futtergemisch SOL unter folgender Wirkstoffzugabe behandelt: • Gruppe I (Kontrollgruppe): Futtergemisch allein Gruppe II: Phthalazol, 100 ppm • Gruppe III: Cyadox, 100 ppm • Gruppe IV: Cyadox und Phthalazol, je 100 ppm.

Vibrio coli = assay: Treatment of bloody diarrhoea in pre-fattening pigs via supplemented feed (14 days); assay type: in vivo, Vormastschweine
From the text: Die Versuche wurden in einem Schweinemastbetrieb durchgeführt, bei dem ständig bei 5 bis 15 der Vormastschweine (Rasse BU x PC + L) von etwa 50 kg Gewicht, die in Koben zu 10 bis 15 Tieren untergebracht waren, blutige Durchfälle auftraten.
as §1

[2] = Ratten, p.o.; cited from earlier work
[3] = Fattening trial in early-weaned piglets with supplemented feed (4 weeks); assay type: in vivo, Ferkel; settings: 28 days; for Zuwachsindex (%): 100 ppm of each active in feed; for Zuwachsindex (%) / Ausnutzungsindex (%): control = 100,0; for Ausnutzungsindex (%), difference from control (in brackets) / Ausnutzungsindex (%) / Futtermittel-Ausnutzung, x̄: 100 ppm of each active; for Futtermittel-Ausnutzung, x̄: feed consumption per unit of gain, control 2,0
From the text: Frühabgesetzte Ferkel (Mischlinge des weißen edlen Landschweinsx Landrasse), die innerhalb einer Zeitspanne von 6 Tagen geboren waren, wurden aus der Gebärstation am S. Tage nach dem Absetzen in die Versuchsanlage gebracht. Die Ferkel wurden in Gruppen von je 8 bis 12 Tieren in Boxen untergebracht, die mit Rostböden versehen und durch hölzerne Bodenplatten beheizt waren. Nach 7 Tagen Anpassungszeit wurde der eigentliche Mastversuch begonnen. Über die gesamte Versuchsdauer von 4 Wochen wurde in allen Gruppen das Futtergemishc ? OS 2 für früh abgesetzte Ferkel verfüttert, das durch Zusatz der entsprechenden Prämixe jeweils mit folgenden Wirkstoffen angereichert wurde: • Gruppe I (Kontrollgruppe): Futtergemisch allein ohne Zusatz • Gruppe II: Cyadox, 100 ppm (100 mg pro kg Futtergemisch) • Gruppe III: Roh-Tylo-sin, 100 ppm reine Tylosinbase • Gruppe IV : Cyadox und Roh-Tylosin, je 100 ppm.
Zu Beginn des Versuchs und am Versuchsende (28. Tag) wurden die Tiere individuell gewogen. Der Futterverbrauch pro Gruppe wurde täglich ermittelt und daraus die Futtermittelausnutzung, dh der Futterverbrauch pro Zuwachseinheit, berechnet. Ebenso wurde der Allgemeinzustand der Tiere täglich verfolgt.

[4] = 100 ppm of each active in feed, 14 days

| Compound | Gesamtzuwachs x̄ (kg) [1] | Endgewicht x̄ (kg) [1] | Tageszuwachs [1] [g] | Zuwachsindex (%) [1] | Anzeichen blutiger Durchfälle (Vibrio coli; [4]) | Heilungsgrad (Vibrio coli; [4]) | LD50 [2] [mg/kg] | Zuwachsindex (%) [3] | Ausnutzungsindex (%), difference from control (in brackets) [3] | Ausnutzungsindex (%) [3] | Futtermittel-Ausnutzung, x̄ [3] | Schweine notgeschlachtet wegen unbefriedigenden Allgemeinzustands (Vibrio coli; at end of trial, group of 20 pigs, 100 ppm) |
| --- | --- | --- | --- | --- | --- | --- | --- | --- | --- | --- | --- | --- |
| N#CCC(=O)NN=Cc1c[n+]([O-])c2ccccc2[n+]1[O-] [Cyadox, 2-Formylchinoxalin-1,4-dioxy-cyanacetyl-hydrazon] | 10,10 kg | 57,90 kg | 721 | 112,8% | keine Anzeichen blutiger Durchfälle | 100 | 15000 | 109,8% | -0,5% | 99,5% | 1,99 | – |
| CC[C@H]1OC(=O)C[C@@H](O)[C@H](C)[C@@H](O[C@@H]2O[C@H](C)[C@@H](O[C@H]3C[C@@](C)(O)[C@@H](O)[C@H](C)O3)[C@H](N(C)C)[C@H]2O)[C@@H](CC=O)C[C@@H](C)C(=O)/C=C/C(C)=C/[C@@H]1CO[C@@H]1O[C@H](C)[C@@H](O)[C@@H](OC)[C@H]1OC [Tylosin] | – | – | – | – | – | – | – | 125,9% | -7,8% | 92,2% | 1,90 | – |
| O=C(O)c1ccccc1C(=O)Nc1ccc(S(=O)(=O)Nc2nccs2)cc1 [Phthalazol] | 8,99 kg | 59,61 kg | 642 | 100,5% | – | – | – | – | – | – | – | 5 |

From patent EP0160115A1, “Growth stimulating food additive for animals” (SPOFA Spojené Podniky Pro Zdravotnickou Vyrobu, priority 1984, dated 1985)
